Test results reported in US9962341B2, “Active pharmaceutical ingredient (API) comprising cannabinoids for use in the treatment of cancer” (GW Pharma Limited, priority 2014, dated 2018).

Experiments:
Assay type in all cases: cell-based
PANC-1 = assay: Cell viability (CellTiter-Blue, 72 h), PANC-1 pancreatic cancer cells; details: Homo sapiens; PANC-1, 1% FBS, 72 h; read-out: Cell line IC50 value
Method: (§1) The following cell lines were tested in this example: Lung Cancer (A549, NCI-H460); Pancreatic cancer (PANC1, Mia-Pa-Ca-2); Melanoma (WM115, A375); Ovarian cancer (OVCAR3, SKOV3); Gastric cancer (MKN45, HGC-27); Renal cancer (ACHN) and Bladder Cancer (RT112).
(§2) Each tumour cell line was maintained in vitro in RPMI 1640+10% heat inactivated FBS and 2 mM L-glutamine (growth media) at 37° C. in 5% CO2 and humidified conditions. The cells were harvested, washed, re-suspended into growth medium and counted. The cells were re-suspended into assay media (RPMI 1640+5% heat inactivated FBS+ and 2 mM L-glutamine) at 4×10^4 cells/ml (dependent upon cell type) and plated into the middle 240 wells of 384 well tissue culture plates (Corning CellBind, black-wall plates) 25 μl/well aliquots; 50 μl of growth media was aliquoted into the outer wells. There were 3 plates for each cell line.
(§3) The plates were incubated overnight at 37° C., in 5% humidified CO2.
(§4) The phytocannabinoid test compounds were prepared in 100% DMSO vehicle at a stock concentration of 20 and 40 mM.
(§5) Starting with the 20 mM stock in DMSO, this was serially diluted (2 fold) in DMSO in a 96-well plate, to 20 (no dilution), 10, 5, 2.5, 1.25, 0.625, 0.315, 0.157 and […]. Following this, 10 ul of each compound dilution was diluted into 990 ul of 1% (v/v) FBS media in a deep well block making the final concentrations of 200, 100, 50, 25, 12.5, 6.25, 3.125, 1.56 and 0.79 μM (2× final assay concentrations and 1% DMSO).
(§6) An equal volume of each cannabinoid in the combination (stock concentration 40 mM) was mixed together to make a stock of 20 mM of each cannabinoid in DMSO. This was serially diluted (2 fold) in DMSO in a 96-well plate, to 20 (no dilution), 10, 5, 2.5, 1.25, 0.625, 0.315, 0.157 and […]. Following this, 10 ul of each combination dilution was diluted into 990 ul of 1% (v/v) FBS media in a deep well block making the final concentrations of 200, 100, 50, 25, 12.5, 6.25, 3.125, 1.56 and 0.79 μM (2× final assay concentrations and 1% DMSO).
(§7) Gemcitabine SOC was prepared in 100% DMSO to give a stock concentration of 20 mM. This was then serially diluted (3 fold) in DMSO in a 96-well plate, to 20 (no dilution), 6.6, 2.2, 0.741, 0.247, 0.082, 0.027, 0.009 and 0.003 mM. Following this, 10 ul of each dilution was further diluted into 990 ul of 1% (v/v) FBS media making the final concentrations of 200 (no dilution), 66.66, 22.22, 7.41, 2.47, 0.82, 0.27, 0.09, 0.03 μM (2× final assay concentrations and 1% DMSO).
(§8) The plates were incubated for 72 h at 37° C. in 5% humidified CO2. To develop the plates, at 72 h, 10 μl of CellTiter-Blue™ reagent was added to each test/blank well.
(§9) The plates were incubated at 37° C., 5% humidified CO2. Fluorescence was measured using a Flex II Station plate reader (570 nm excitation wavelength, 600 nm emission wavelength, 590 nm cut-off) after 3 h.
(§10) The phytocannabinoid compounds CBD, CBGA, CBG, CBDA, THCV and THC were tested on a panel of lung (A549, NCI-H460), pancreatic (PANC1, Mia-Pa-Ca-2), melanoma (WM115, A375), ovarian (OVCAR3, SKOV3), gastric (MKN45, HGC-27), renal (ACHN) and bladder (RT112) cancer cell lines according to the protocol for 72 h in media containing 1% FBS.
(§11) The IC50 values for each phytocannabinoid and combination of CBD with the other phytocannabinoids was calculated for each cell line. The raw data values expressed in relative fluorescent units were normalised to the vehicle for each individual plate and any reduction in fluorescence indicated a decrease in viability.
(§12) This calculation was as described in Example 1 above.

Mia-Pa-Ca-2 = assay: Cell viability (CellTiter-Blue, 72 h), Mia-Pa-Ca-2 pancreatic cancer cells; details: Homo sapiens, MIA PaCa-2, 72 h, read-out: Cell line IC50 value
Method: as §1, §2, §3, §4, §5, §6, §7, §8, §9, §10, §11, §12

WM115 = assay: Cell viability (CellTiter-Blue, 72 h), WM115 melanoma cells; details: WM115, 1% FBS, 72 h; read-out: Cell line IC50 value
Method: as §1, §2, §3, §4, §5, §6
(§13) Cisplatin (stock of 1 mg/ml=3.33 mM in water) was diluted in 1% FBS media to give a stock concentration of 1 mM. This was then diluted in 1% FBS media from the stock solution to 200 μM, then serially diluted (3-fold) in 1% FBS media to 200 (no dilution), 66.66, 22.22, 7.41, 2.47, 0.82, 0.27, 0.09, 0.03 μM (2× final assay concentrations; no DMSO).
as §8, §9, §10, §11, §12

A375 = assay: Cell viability (CellTiter-Blue, 72 h), A375 melanoma cells; details: A375, 1% FBS, 72 h; read-out: Cell line IC50 value
Method: as §1, §2, §3, §4, §5, §6, §13, §8, §9, §10, §11, §12

OVCAR3 = assay: Cell viability (CellTiter-Blue, 72 h), OVCAR3 ovarian cancer cells; details: OVCAR3, 1% FBS, 72 h; read-out: Cell line IC50 value
Method: as §1, §2, §3, §4, §5, §6, §13, §8, §9, §10, §11, §12

SKOV3 = assay: Cell viability (CellTiter-Blue, 72 h), SKOV3 ovarian cancer cells; details: SKOV3, 1% FBS, 72 h; read-out: Cell line IC50 value
Method: as §1, §2, §3, §4, §5, §6, §13, §8, §9, §10, §11, §12

MKN45 = assay: Cell viability (CellTiter-Blue, 72 h), MKN45 gastric cancer cells; details: MKN45, 1% FBS, 72 h; read-out: Cell line IC50 value
Method: as §1, §2, §3, §4, §5, §6, §13, §8, §9, §10, §11, §12

HGC-27 = assay: Cell viability (CellTiter-Blue, 72 h), HGC-27 gastric cancer cells; details: HGC-27, 1% FBS, 72 h; read-out: Cell line IC50 value
Method: as §1, §2, §3, §4, §5, §6, §13, §8, §9, §10, §11, §12

RT112 = assay: Cell viability (CellTiter-Blue, 72 h), RT112 bladder cancer cells; details: RT112, 1% FBS, 72 h; read-out: Cell line IC50 value
Method: as §1, §2, §3, §4, §5, §6, §13, §8, §9, §10, §11, §12

SMILES | IC50 (PANC-1) | IC50 (Mia-Pa-Ca-2) | IC50 (WM115) | IC50 (A375) | IC50 (OVCAR3) | IC50 (SKOV3) | IC50 (MKN45) | IC50 (HGC-27) | IC50 (RT112)
Nc1ccn([C@@H]2O[C@H](CO)[C@@H](O)C2(F)F)c(=O)n1 [Gemcitabine, reference compound] | > 100 µM | > 100 µM |  |  |  |  |  |  | 
N.N.[Cl][Pt][Cl] [Cisplatin, reference compound] |  |  | 35 µM | 6.3 µM | 7.7 µM | 4.5 µM | 9.7 µM | 47 µM | 27 µM
